Source: publication PMC4482694, “Machine Learning Models and Pathway Genome Data Base for Trypanosoma cruzi Drug Discovery” (PLoS Neglected Tropical Diseases, 2015)
Structures can show the parent of a compound that is named as a salt. Where two headings read alike, the source gives them in different places.

What was measured:
T. cruzi CA-I/72 = test: Secondary screening (dose-response assay); assay type: cell-based, Trypanosoma cruzi
Experimental: (§1) T. cruzi CA-I/72 trypomastigotes were obtained from C2C12 infected-culture supernatants after 4–7 days of infection. Cultures were maintained at 37°C with 5% CO2. […] Compounds were added at 10 mM in 50 nl per well using a Biomek FX (Beckman Coulter) for a final 10 μM concentration in 50 μl total volume, and 2,500 parasites were added in 10 μl per well. The plate was incubated for 72 hours at 37°C with 5% CO2. After the incubation, the plate was fixed with the addition of 50 μl of 8% paraformaldehyde solution, followed by two successive washing steps using PBS. Finally, a staining solution containing 0.5 μg/ml of 4',6-diamidino-2-phenylindole (DAPI) was added to each well of the plate and incubated for at least 4 hours prior to reading. Images were acquired by an IN Cell Analyzer 2000 (GE Healthcare) and analyzed by IN Cell Analyzer Developer 1.6 software. […] Numbers of host cells and intracellular amastigotes were determined based on host cell and parasite nucleus quantification, providing a measure of growth inhibition during the first 72 h of post-infection treatment compared to untreated controls. […] The host cell viability was assessed based on the total number of cells divided by the average number of cells from untreated controls (0.1% DMSO), being <0.5 considered a cytotoxic compound. This assay was performed in duplicate.
The hit selection criteria: >50% activity at 10 μM and >0.5 host cell viability in the primary screening. To determine the potency of the hit compounds, we performed a dose-response assay. EC50 values of compounds were determined applying the same assay used in the primary screening. […] Then, 50 nl of each sample were diluted in 50 μl media (DMEM H-21) and added to the experimental plate followed by incubation at 37°C with 5% CO2 for 72 h.

[1] = system: transgenic T.cruzi Brazil luc strain; test: 4-day mouse model of infection, luciferase readout; assay type: in vivo, Trypanosoma cruzi; details: for Chagas mouse model (4 days treatment, luciferase): In vivo efficacy at 50 mg/kg bid (IP): Balb/c mice, 50 mg/kg b.i.d. IP, read at day 7 post-infection, benznidazole = 100%, vehicle = 0%
From the text: To assess in vivo efficacy of test compounds, a 4-day mouse model of infection by transgenic T.cruzi Brazil luc strain expressing firefly luciferase was used as previously described. Six-week-old female Balb/c mice (average weight 20g) were obtained from Simonsen Labs (Gilroy, CA). All animal protocols were approved and carried out in accordance with the guidelines established by the Institutional Animal Care and Use Committee from UCSD (Protocol S14187). Mice were housed at a maximum of 5 per cage and kept in a specific-pathogen-free (SPF) room at 20 to 24°C under a 12-h light/12-h dark cycle and provided with sterilized water and chow ad libitum. To infect the mice, trypomastigotes of T. cruzi Brazil luc strain were used. The parasites were harvested from culture supernatant 7 days after the infection of C2C12 myocytes in T.75 culture flasks using DMEM media supplemented with 5% FBS. The harvested parasites were counted and the density was adjusted for 10^6 parasites per milliliter of DMEM media without FBS. For the mouse infection, 100 ul of the parasite solution was injected intraperitoneally (10^5 trypomastigotes) per mouse. Starting on day 3 the infected mice were treated with test compounds at 50 mg/kg administered in 20% Kolliphor, IP, b.i.d., for four consecutive days. Two control groups included untreated mice, which received a vehicle (20% Kolliphor HS 15, a.k.a. Solutol), and the positive control groups, which received 50 mg/kg benznidazole, IP, twice a day (b.i.d). At day 7 post-infection, the luminescent signal from infected mice was read upon injection of D-luciferin. The absolute numbers of measured photons/s/cm^2 were averaged between all five mice in each group. The average photons/s/cm^2 from the group treated with benznidazole was normalized as 100% efficacy and the average photons/s/cm^2 from the group treated with vehicle only was normalized as 0% efficacy. Using a linear correlation, the average photons/s/cm^2 of each compound was normalized in the same efficacy scale as the controls.

[2] = molecular target: T. cruzi Tulahuen genetically modified to express Beta-galactosidase; details: cited from earlier work; for EC50: Broad dataset, read-out: EC50 in the Broad dose response dataset
T. cruzi = system: T. cruzi; parameters: method as in PMID 21912715; details: retest of Broad HTS hits in one study; cited from earlier work
Host cell cytotoxicity = assay type: cell-based; details: mouse; C2C12 host cells
Experimental: as §1

[3] = Trypanosoma cruzi, C2C12, 72 h, intracellular T. cruzi in C2C12 cells, 72 h, read-out: EC50
[4] = Trypanosoma cruzi, intracellular T. cruzi in C2C12 cells, 72 h, read-out: EC90
[5] = intracellular T. cruzi in C2C12 cells, 72 h, read-out: EC50

COc1ccc(CCN(C)CCCC(C#N)(c2ccc(OC)c(OC)c2)C(C)C)cc1OC (racemic) [SC-0005695, (±)-Verapamil hydrochloride] showed an EC90 (T. cruzi CA-I/72; Trypanosoma cruzi, C2C12, 72 h) of 143 nM, an EC50 (T. cruzi CA-I/72; intracellular T. cruzi in C2C12 cells, 72 h, listed as (±)-Verapamil hydrochloride) of 38.3 nM and an EC50 (T. cruzi CA-I/72; intracellular T. cruzi in C2C12 cells, 72 h, listed as verapamil) of under 1000 nM. The “Chagas mouse model (4 days treatment, luciferase): In vivo efficacy at 50 mg/kg bid (IP)” value (from here on “Chagas mouse model”) [1] was 55.1%, the EC50 [2] was under 100 nM and the IC50 (T. cruzi) was over 50000 nM.

In the case of O=C(Cn1ccnc1[N+](=O)[O-])NCc1ccccc1 [Benznidazole], the “Chagas mouse model” value [1] is reported as 100%.

Compound COc1ccc2cc1Oc1ccc(cc1)C[C@H]1c3cc(c(OC)cc3CCN1C)Oc1c(OC)c(OC)cc3c1[C@H](C2)N(C)CC3 [SC-0011496, Tetrandrine] has an EC50 (T. cruzi CA-I/72; [3]) of under 1000 nM, an EC90 (T. cruzi CA-I/72; [4]) of 1570 nM and an EC50 (T. cruzi CA-I/72; [5]) of 508 nM. For the same compound, the “Chagas mouse model” value [1] was 43.6%, the “Statistical significance of in vivo efficacy” value ([1]; Student t test vs vehicle at day 7, p≤ 0.05) was “does not appear to have statistically significant efficacy in vivo” and the “Result in the larger Broad HTS screening dataset to identify inhibitors of replication” value [2] was “inactive”. For the same compound, the CC50 at 72 h (Host cell cytotoxicity) was 1300 nM.

For O=C1OCCN1/N=C/c1ccc([N+](=O)[O-])o1 [SC-0011742, Furazolidone], the “Chagas mouse model” value ([1]; listed as Furazolidone, 50 mg/kg) was 100.5% and the “Chagas mouse model” value ([1]; listed as furazolidone, 50 mg/kg) was 100%.

NC(=O)N/N=C/c1ccc([N+](=O)[O-])o1 [SC-0011754, Nitrofural] gave an EC50 (T. cruzi CA-I/72; [3]) of under 1000 nM, an EC90 (T. cruzi CA-I/72; [4]) of 6980 nM and an EC50 (T. cruzi CA-I/72; [5]) of 775 nM. For the same compound, the CC50 at 72 h (Host cell cytotoxicity) was over 10000 nM.

With COc1ccc2nc3cc(Cl)ccc3c(Nc3cc(CN4CCCC4)c(O)c(CN4CCCC4)c3)c2n1 [SC-0011799, Pyronaridine] the EC90 (T. cruzi CA-I/72; [4]) was 665 nM, the EC50 (T. cruzi CA-I/72; intracellular T. cruzi in C2C12 cells, 72 h, listed as Pyronaridine, read-out: EC50) was 225 nM and the EC50 (T. cruzi CA-I/72; intracellular T. cruzi in C2C12 cells, 72 h, listed as pyronaridine, read-out: EC50) was under 1000 nM. For the same compound, the “Chagas mouse model” value [1] was 85.2%, the EC50 [2] was under 587 nM and the CC50 at 72 h (Host cell cytotoxicity) was 3000 nM.

In the case of O=C(NCO)N/N=C/c1ccc([N+](=O)[O-])o1 [hydroxymethylnitrofurazone, Hydroxymethylnitrofurazone], the “Chagas mouse model” value ([1]; 50 mg/kg) is reported as 78.5%.
